Tests used:
[1] = system: ICR mice; assay: EPO protein expression in mice after intravenous EPO mRNA lipid nanoparticles; assay type: in vivo; details: mRNA 0.1 mg/kg, plasma 6 hours after administration
Description: (§1) The compounds described in Table 1, the neutral lipid, cholesterol (product name: Cholesterol HP; NIPPON FINE CHEMICAL CO., LTD.), and 1,2-dimyristoyl-rac-glycero-3-(methylpolyoxyethylene 2000) (hereinafter, called DMG-PEG2000) (product name: SUNBRIGHT® GM-020; NOF corporation) were dissolved in ethanol at a molar ratio of ionized lipid:neutral lipid:cholesterol:DMG-PEG2000=50:10:38.5:1.5 mol % such that the total lipid concentration was 12.5 mmol/L, to obtain an oil phase.
(§2) As the neutral lipid, 1,2-distearoyl-sn-glycero-3-phosphocholine (product name: COATSOME® MC-8080; NOF corporation) (hereinafter, DSPC), or L-α-dioleoylphosphatidylethanolamine (hereinafter, DOPE) (product name: COATSOME® MC-8181; NOF corporation) was used.
(§3) EPO mRNA (product name: CleanCap EPO mRNA (5 moU); TriLink) was diluted with 50 mmol/L citrate buffer having a pH 4.0 such that the weight ratio of total lipid concentration to mRNA concentration is about 20:1 to 64:1, thereby obtaining a water phase. Then, the water phase and the oil phase were mixed together using NanoAssemblr (Precision NanoSystems) such that the volume ratio of water phase:oil phase was 3:1. The mixed solution was diluted 2-fold with any of phosphate buffered physiological saline (PBS), water, or a 20 mmol/L Tris buffer solution (pH 7.4) to obtain a dispersion liquid of mRNA lipid nanoparticles. The dispersion liquid was dialyzed with 20 mmol/L Tris buffer solution (pH 7.4) containing 8% sucrose using a dialysis cassette (Slide-A-Lyzer G2, MWCO: 10 kD, Thermo Fisher Scientific) to remove ethanol, thereby obtaining EPO mRNA-encapsulating lipid nanoparticles.
The dispersion liquid of mRNA lipid nanoparticles prepared in above <Preparation of EPO mRNA-encapsulating lipid nanoparticles> was intravenously administered to ICR mice at a mRNA dosage of 0.1 mg/kg. 6 hours after the administration, blood was collected from the caudal vena cava, thereby obtaining plasma. The human EPO […] was quantified by using the obtained blood plasma and Erythropoietin (EPO) Human Elisa Kit (Abcam.plc). The quantitative value is described as a relative amount of EPO protein in a case where Comparative Example 1 is 1.

[2] = system: EPO mRNA; assay: mRNA encapsulation rate of mRNA lipid nanoparticles; assay type: physicochemical; details: mixed solution PBS
Description: as §1, §2, §3
EPO mRNA was diluted with MilliQ water to prepare a diluted sample in 2-fold dilution series from 100 µg/mL to […], and a calibration curve solution was prepared. 50 μL of the calibration curve solution or the mRNA lipid nanoparticles was mixed with 450 μL of methanol to prepare a measurement solution.
The absorbance of each measurement solution at 260 nm and 330 nm was measured using a UV plate reader (Multiskan Go, Thermo Fisher Scientific), the absorbance at 330 nm was subtracted from the absorbance at 260 nm, and the result was defined as the absorbance of each measurement solution. The total […] nucleic acid concentration was calculated from the calibration curve using the absorbance of each sample measurement solution.
The concentration of the outer water phase nucleic acid was quantified by a standard addition method using a QuanT-iT RiboGreen RNA Assay Kit (Thermo Fisher Scientific). First, a 20× TE buffer included in the above kit was diluted with water, thereby obtaining a 1×TE buffer. TE represents Tris/EDTA (ethylenediaminetetraacetic acid). EPO mRNA was diluted with a TE buffer such that the final concentration was 0 to 400 ng/mL to prepare a nucleic acid diluted series. 10 μL of mRNA lipid nanoparticles diluted 5-fold with TE buffer and 90 µL of a nucleic acid dilution series were mixed in a 96-well plate, 100 μL of a Ribogreen reagent diluted 200-fold with TE buffer was added to each well, and then fluorescence (excitation wavelength: 485 nm, fluorescence wavelength: 535 nm) was measured using a fluorescence plate reader (Infinite 200 Pro M nano+, TECAN). From the obtained results, the outer water phase nucleic acid concentration of each measurement solution was calculated according to the standard addition method.
By using the quantification results of the total mRNA concentration and the mRNA concentration in the outer water phase that were obtained through the above steps, the mRNA encapsulation rate of the mRNA lipid nanoparticles was calculated according to the following Equation. […]

[3] = Particle size of EPO mRNA-encapsulating lipid nanoparticles; assay type: physicochemical; details: mixed solution PBS
Description: as §1, §2, §3
The particle size of the mRNA-encapsulating lipid nanoparticles was measured by 5-fold diluting the dispersion liquid of lipid nanoparticle with phosphate buffered physiological saline (PBS) using a particle size measurement device NanoSaqla (Otsuka Electronics Co., Ltd.).

[4] = neutral lipid DSPC, Lipid/Nucleic acid (wt/wt) 20, Comparative Example 1 is 1
[5] = LNP with neutral lipid DSPC, Lipid/Nucleic acid (wt/wt) 20
[6] = neutral lipid DOPE, Lipid/Nucleic acid (wt/wt) 64, Comparative Example 1 is 1
[7] = LNP with neutral lipid DOPE, Lipid/Nucleic acid (wt/wt) 64

Compound	Nucleic acid encapsulation rate (%) [2, 5]	Particle size (nm) [3, 5]	Nucleic acid encapsulation rate (%) [2, 7]	Particle size (nm) [3, 7]	Relative amount of EPO protein (to Comparative Example 1) [1, 4]	Relative amount of EPO protein (to Comparative Example 1) [1, 6]
CCCCCC(CCCCC)COC(=O)CCN(CCCC)C(=O)OCCN(CCOC(=O)N(CCCC)CCC(=O)OCC(CCCCC)CCCCC)CCN(CC)CC [Example 6, Bis(2-pentylheptyl) 4,14-dibutyl-9-(2-(diethylamino)ethyl)-5,13-dioxo-6,12-dioxa-4,9,14-triazaheptadecanedioate]	58%	183 nm				
CCCCCC(CCCCC)COC(=O)CCN(CCCC)C(=O)OCCN(CCCN(CC)CC)CCOC(=O)N(CCCC)CCC(=O)OCC(CCCCC)CCCCC [Example 7, Bis(2-pentylheptyl) 4,14-dibutyl-9-(3-(diethylamino)propyl)-5,13-dioxo-6,12-dioxa-4,9,14-triazaheptadecanedioate]	73%	215 nm				
CCCCCC(CCCCC)COC(=O)CCCCN(C(=O)OCCN(CCOC(=O)N(CCCCC(=O)OCC(CCCCC)CCCCC)C(C)C)CCN(CC)CC)C(C)C [Example 13, Bis(2-pentylheptyl) 11-(2-(diethylamino)ethyl)-6,16-diisopropyl-7,15-dioxo-8,14-dioxa-6,11,16-triazahenicosanedioate]	88%	188 nm				
CCCCCC(CCCCC)COC(=O)CCCCN(C(=O)OCCN(CCCN(CC)CC)CCOC(=O)N(CCCCC(=O)OCC(CCCCC)CCCCC)C(C)C)C(C)C [Example 14, Bis(2-pentylheptyl) 11-(3-(diethylamino)propyl)-6,16-diisopropyl-7,15-dioxo-8,14-dioxa-6,11,16-triazahenicosanedioate]	97%	185 nm				
CCCCCC(CCCCC)COC(=O)CCCCN(CCC)C(=O)OCCN(CCOC(=O)N(CCC)CCCCC(=O)OCC(CCCCC)CCCCC)CCN(CC)CC [Example 15, Bis(2-pentylheptyl) 11-(2-(diethylamino)ethyl)-7,15-dioxo-6,16-dipropyl-8,14-dioxa-6,11,16-triazahenicosanedioate]	79%	238 nm				
CCCCCC(CCCCC)COC(=O)CCCCN(CCC)C(=O)OCCN(CCCN(CC)CC)CCOC(=O)N(CCC)CCCCC(=O)OCC(CCCCC)CCCCC [Example 16, Bis(2-pentylheptyl) 11-(3-(diethylamino)propyl)-7,15-dioxo-6,16-dipropyl-8,14-dioxa-6,11,16-triazahenicosanedioate]	93%	187 nm				
CCCCCC(CCCCC)COC(=O)CCCCN(CC(C)C)C(=O)OCCN(CCOC(=O)N(CCCCC(=O)OCC(CCCCC)CCCCC)CC(C)C)CCN(CC)CC [Example 18, Bis(2-pentylheptyl) 11-(2-(diethylamino)ethyl)-6,16-diisobutyl-7,15-dioxo-8,14-dioxa-6,11,16-triazahenicosanedioate]	43%	224 nm				
CCCCCC(CCCCC)COC(=O)CCCCN(CCCC)C(=O)OCCN(CCOC(=O)N(CCCC)CCCCC(=O)OCC(CCCCC)CCCCC)CCN(CC)CC [Example 21, Bis(2-pentylheptyl) 6,16-dibutyl-11-(2-(diethylamino)ethyl)-7,15-dioxo-8,14-dioxa-6,11,16-triazahenicosanedioate]	64%	230 nm				
CCCCCCCCCCCCOC(=O)CN(CC(=O)OCCCCCCCCCCCC)C(=O)OCCN(CCOC(=O)N(CC(=O)OCCCCCCCCCCCC)CC(=O)OCCCCCCCCCCCC)CCN(CC)CC [Example 32, didodecyl 8-(2-(diethylamino)ethyl)-3,13-bis(2-(dodecyloxy)-2-oxoethyl)-4,12-dioxo-5,11-dioxa-3,8,13-triazapentadecanedioate]	60%	203 nm				
CCCCCCCCCCCCCOC(=O)CN(CC(=O)OCCCCCCCCCCCCC)C(=O)OCCN(CCOC(=O)N(CC(=O)OCCCCCCCCCCCCC)CC(=O)OCCCCCCCCCCCCC)CCN(CC)CC [Example 34, Ditridecyl 8-(2-(diethylamino)ethyl)-4,12-dioxo-3,13-bis(2-oxo-2-(tridecyloxy)ethyl)-5,11-dioxa-3,8,13-triazapentadecanedioate]	33%	332 nm				

Second part, led by results:

Nucleic acid encapsulation rate (%) [2, 5]	Particle size (nm) [3, 5]	Nucleic acid encapsulation rate (%) [2, 7]	Particle size (nm) [3, 7]	Compound	Relative amount of EPO protein (to Comparative Example 1) [1, 4]	Relative amount of EPO protein (to Comparative Example 1) [1, 6]
62%	206 nm			CCCCCCCCN(CCCCCCCCCC(=O)OCC(CCCCCC)CCCCCC)C(=O)OCCN(CCOC(=O)CCCCCCC)CCN(CC)CC [Comparative Example 1, 2-hexyloctyl 3-ethyl-6-(2-(octanoyloxy)ethyl)-11-octyl-10-oxo-9-oxa-3,6,11-triazahenicosan-21-oate, reference compound]	1.00	
		>99%	88.6 nm	CCCCCCCCN(CCCCCCCC)C(=O)OCCN(CCOC(=O)N(CCCCCCCC)CCCCCCCC)CCN(CC)CC [Example 1, ((2-(diethylamino)ethyl)azanediyl)bis(ethan-2,1-diyl)bis(dioctylcarbamate)]		21.60
94%	82 nm	99%	95.6 nm	CCCCCCCCN(CCCCC(=O)OCC(CCCCCC)CCCCCC)C(=O)OCCN(CCOC(=O)N(CCCCCCCC)CCCCC(=O)OCC(CCCCCC)CCCCCC)CCN(CC)CC [Example 2, bis(2-hexyloctyl) 11-(2-(diethylamino)ethyl)-6,16-dioctyl-7,15-dioxo-8,14-dioxa-6,11,16-triazahenicosanedioate]	6.70	24.57
94%	78 nm	99%	94.5 nm	CCCCCCCCN(CCCCC(=O)OCC(CCCCC)CCCCC)C(=O)OCCN(CCOC(=O)N(CCCCCCCC)CCCCC(=O)OCC(CCCCC)CCCCC)CCN(CC)CC [Example 3, Bis(2-pentylheptyl) 11-(2-(diethylamino)ethyl)-6,16-dioctyl-7,15-dioxo-8,14-dioxa-6,11,16-triazahenicosanedioate]	6.15	13.55
62%	169 nm			CCCCCCCCCC(=O)OCCN(CCOC(=O)CCCCCCCCC)C(=O)OCCN(CCOC(=O)N(CCOC(=O)CCCCCCCCC)CCOC(=O)CCCCCCCCC)CCN(CC)CC [Example 12, 2-(2-(2-(bis(2-decanoyloxyethyl)carbamoyloxy)ethyl-(2-(diethylamino)ethyl)amino)ethoxycarbonyl-(2-decanoyloxyethyl)amino)ethyl decanoate]		

Reference: patent publication US20250345459A1, “COMPOUND OR SALT THEREOF, LIPID COMPOSITION, PHARMACEUTICAL COMPOSITION, AND DELIVERY CARRIER” (FUJIFILM Corporation, priority 2023, published 2025)
